Molecules are shown by their SMILES. Converted amounts (≈) assume the structure as drawn. The source made the active and inactive calls. The rule behind the calls is not given here.

In assay [1] the test system is Meloidogyne incognita. Kind of assay: Nematodexic activity against Meloidogyne incognita (root-knot nematode) assessed as mortality at 500 mg/l after 96 hr. The format is functional.
Assay [2] concerns Panagrellus redivivus. The assay is described as follows: Nematodexic activity against mixed juvenile and adult stages of Panagrellus redivivus assessed as mean corrected mortality rate at 28 degC measured after 48 hr by normal binocular microscopic analysis. The format is functional.
In assay [3] the test system is Meloidogyne incognita. The assay is described as follows: Nematodexic activity against eggs of Meloidogyne incognita (root-knot nematode) assessed as mean corrected egg hatching inhibition rate at 25 to 400 ug/ml at 28 degC measured after 7 to 13 days by normal binocular microscopic analysis. Type of assay: functional.
Assay [4] relates to Panagrellus redivivus. Kind of assay: Nematodexic activity against mixed juvenile and adult stages of Panagrellus redivivus assessed as disruption of internal structure, vacuole formation and residual empty somatocysts in the dead worm at 28 degC measured after 48 hr by normal binocular microscopic analysis. Type of assay: functional, organism-based.

As usually defined, the mortality is the percentage killed. `C/C=C/[C@@H]1OC(=O)C=C[C@@H]1O` [PHOMALACTONE]: the mortality at 500 µg/mL in the assay on Meloidogyne incognita [1] turned out to be 84%.

In general, LC50 refers to the concentration lethal to half of the exposed cells or organisms. `COc1cc(=O)oc(/C=C/C=C/C=C/C2OC3(C)C([C@H](C)O)OC(C)(C2O)C3O)c1C` (some centres undefined) [AUROVERTIN F]: in the assay with Panagrellus redivivus [2], the LC50 turned out to be 88.6 µg/mL (≈ 204 µM). In addition, the “inhibition (INH)” value in the assay on Meloidogyne incognita [3] is “<=5%”. Besides, the outcome with Panagrellus redivivus [4] was Active.

Regarding `COc1cc(=O)oc(/C=C/C=C/C=C/C2OC3(C)C([C@H](C)O)OC(C)(C2O)C3OC(C)=O)c1C` (some centres undefined) [AUROVERTIN D], the LC50 in the assay with Panagrellus redivivus [2] was 41.7 µg/mL (≈ 87.5 µM). In the assay on Meloidogyne incognita [3], the “inhibition (INH)” value was “<=5%”. Also, the result in the assay with Panagrellus redivivus [4] was Active.

As to `CCC1O[C@]2(C)[C@@H](O)[C@H](/C=C/C=C/C=C/c3oc(=O)cc(OC)c3C)O[C@]1(C)[C@H]2O` (some centres undefined), the “inhibition (INH)” value with Meloidogyne incognita [3] is recorded as “<=5%”.

`COc1cc(=O)oc(/C=C/C=C/C=C/[C@@H]2O[C@@]3(C)C(C)O[C@](C)([C@H]2O)[C@@H]3O)c1C` (some centres undefined): the “inhibition (INH)” value in the assay with Meloidogyne incognita [3] is reported as “<=5%”.

For the origin of these results see ChEMBL document CHEMBL3044710, “Nematodetoxic aurovertin-type metabolites from a root-knot nematode parasitic fungus Pochonia chlamydosporia” (2010).
